Our source for the EC50 values is US10034893B2, “5, 6-D2 uridine nucleoside/tide derivatives” (priority 2013, dated 2018).

Molecules are shown by their SMILES.

One may read the EC50 as the concentration that produces a half-maximal response.

For this experiment, the system named is HCV 1a genotype replicon (Huh-1a7 cell line, strain H77). Put plainly: HCV Replicon Assay qRT-PCR, genotype 1a. It is filed as cell-based. As to conditions: Hepatitis C virus, read-out: 1a EC50. An excerpt: HCV replicon cell lines (kindly provided by R. Bartenschlager) isolated from colonies as described by Lohman et al. (Lohman et al. (1999) Science 285: 110-113, expressly incorporated by reference in its entirety) and used for all experiments. One of the HCV replicon cell lines (strain Conl, genotype 1b) has the nucleic acid sequence set forth in EMBL Accession No.: AJ242651, the coding sequence of which is from nucleotides 1801 to 8406. Another replicon cell line (strain H77, genotype 1a) was constructed as described by Yi et. al. (Yi et. al. (2004) Journal of Virology 78(15):7904-15). […]
EC50 values of single agent compounds were determined by HCV RNA detection using quantitative RT-PCR, according to the manufacturer's instructions, with a TAQMAN® One-Step RT-PCR Master Mix Reagents Kit (Cat#AB 4309169, Applied Biosystems) on an ABI Model 7500 thermocycler. EC50 values of combinations are similarly determined by HCV RNA detection using quantitative RT-PCR. The TAQMAN primers to use for detecting and quantifying HCV RNA obtained from Integrated DNA Technologies. HCV RNA is normalized to GAPDH RNA levels in drug-treated cells, which is detected and quantified using the Human GAPDH Endogenous Control Mix (Applied Biosystems, AB 4310884E). […] Chemical agent cytotoxicity is evaluated using an MTS assay according to the manufacturer's directions (Promega). […]
(In antiviral work, replicon cells carry a viral genome segment that copies itself.)

As to `[2H]c1cn([C@@H]2O[C@H](CO[P@@](=O)(N[C@@H](C)C(=O)OC(C)C)Oc3ccccc3)C(O)C2(C)F)c(=O)[nH]c1=O` (stereo partly shown) [Example 1], the EC50 was 100 to 1000 nM.
